# Reference: patent US20060167223A1, “Novel ampiphilic fluorocarbon molecular vectors for biomedical and medical use” (priority 2002, published 2006)
# Key:
# [1] = Radioactivity in organs of mice carrying B16 melanomas after IP injection of molecule A; format: in vivo; parameters: Radioactivity measured: unit not given here; conditions: for Radioactivity measured: 10 μCi/animal
# fibroblasts = test: Toxicity on cell cultures of fibroblasts; format: cell-based
# B16 melanoma cells = test: Toxicity / cytotoxicity on B16 melanoma cells; format: cell-based
# Description: The cytotoxicity of this molecule was tested on B16 melanoma cells; no toxicity could be measured up to concentrations of greater than 100 μM.
# [2] = test system: microvessel growth (chick aortic ring); test: Vascular growth assay on chick embryos (chick aortic ring assay); format: cell-based
# Description: The ongoing research will make it possible to specify its effectiveness, compared with thalidomide alone, in blocking tumor development.
# [3] = Radioactivity in mice carrying B16 melanoma after IV injection of iodine 125-labeled molecule B; format: in vivo; parameters: Radioactivity measured: unit not given here; conditions: for Radioactivity measured: 10 μCi/animal
# Water-solubility = format: physicochemical
# Description: As has been seen, however, the growth of a cancerous tumor is closely linked to its rate of vascularization and therefore to the phenomenon of angiogenesis that accompanies it. These observations had the scientific community to develop substrates, as has been seen, capable of inhibiting angiogenesis and therefore of blocking, by this means, the development of tumors. It is in fact now commonly accepted that membrane proteins carried by the angiogenic cells, and called integrins, participate actively in the process of proliferation of these cells. More particularly, αVβ3 integrins recognize a specific peptide sequence, the RGD (arginine-glycine-aspartic acid) sequence. The grafting of this unit onto the proposed vector should therefore provide it with an ability to specifically target angiogenic sites and therefore, ultimately, tumor sites. The addition, to this same vector, of an antimitotic agent should allow the selective destruction of the cancerous cells. In this perspective, molecule B was initially prepared to verify the innocuousness of the vector and to determine its specificity. In order to give the targeting agent a greater degree of freedom, said targeting agent was grafted onto the central lysine by means of a […] amino acid, serine. The molecule is water-soluble and is amphiphilic in nature. [drawing 11]
# [4] = test system: fibroblasts exhibiting the NARP mutation; format: cell-based
# Description: The aim pursued here was to refine and to simplify the structure of these substrates while at the same time conserving their biological activity in order to develop a synthetic process that can be readily adapted to the industrial phase.
smiles,measurement,setting,value
O=C1CCC(N2C(=O)c3ccc(C(=O)NC(Cc4ccc(O)cc4)C(=O)NCCCCC(NC(=O)C(O)[C@H](O)[C@H](O[C@@H]4OC(CO)[C@H](O)[C@H](O)C4O)C(O)CO)C(=O)NCCC(F)(F)C(F)(F)C(F)(F)C(F)(F)C(F)(F)C(F)(F)C(F)(F)C(F)(F)F)cc3C2=O)C(=O)N1 (stereo partly drawn) [molecule A],Radioactivity measured,"[1]; Blood, 15 min after IP injection",5.9 ± 1.2
same,Radioactivity measured,"[1]; Blood, 1 h after IP injection",3.4 ± 0.7
same,Radioactivity measured,"[1]; Kidney, 15 min after IP injection",4.6 ± 0.5
same,Radioactivity measured,"[1]; Kidney, 1 h after IP injection",4.0 ± 0.9
same,Radioactivity measured,"[1]; Liver, 15 min after IP injection",4.5 ± 1.1
same,Radioactivity measured,"[1]; Liver, 1 h after IP injection",2.2 ± 0.8
same,Radioactivity measured,"[1]; Thyroid, 15 min after IP injection",5.6 ± 0.8
same,Radioactivity measured,"[1]; Thyroid, 1 h after IP injection",9.8 ± 1.7
same,Radioactivity measured,"[1]; Tumor (center), 15 min after IP injection",2.6 ± 0.5
same,Radioactivity measured,"[1]; Tumor (center), 1 h after IP injection",2.7 ± 0.5
same,Radioactivity measured,"[1]; Tumor (stroma), 15 min after IP injection",4.5 ± 0.7
same,Radioactivity measured,"[1]; Tumor (stroma), 1 h after IP injection",5.4 ± 0.2
same,Localisation in vivo,"[1]; mice carrying B16 melanomas, IP injection",concentrated in the stroma of the tumor
same,Toxicity on cell cultures,fibroblasts,no totally unacceptable toxicity
same,Toxicity on cell cultures,B16 melanoma cells; B16 melanomas,no totally unacceptable toxicity
same,Inhibiting microvessel growth,[2]; at 20 μM,effective
same,Inhibiting microvessel growth,[2]; at 200 μM,completely blocks the development
COC(=O)C(CCCCNC(=O)C(Cc1ccc(O)cc1)NC(=O)C(C)(C)C(C)(C)C(F)(F)C(F)(F)C(F)(F)C(F)(F)C(F)(F)C(F)(F)C(F)(F)C(F)(F)F)NCC(CO)NC(=O)C(CC(=O)O)NC(=O)CNC(=O)C(N)CCCNC(=N)N (stereo not drawn) [molecule B],Radioactivity measured,"[3]; Blood, 15 min after IV injection",5.8 ± 0.8
same,Radioactivity measured,"[3]; Blood, 30 min after IV injection",4.5 ± 0.8
same,Radioactivity measured,"[3]; Blood, 1 h after IV injection",3.6 ± 0.7
same,Radioactivity measured,"[3]; Kidney, 15 min after IV injection",8.9 ± 1.6
same,Radioactivity measured,"[3]; Kidney, 30 min after IV injection",5.9 ± 0.6
same,Radioactivity measured,"[3]; Kidney, 1 h after IV injection",3.5 ± 0.6
same,Radioactivity measured,"[3]; Liver, 15 min after IV injection",4.8 ± 0.8
same,Radioactivity measured,"[3]; Liver, 30 min after IV injection",2.2 ± 0.6
same,Radioactivity measured,"[3]; Liver, 1 h after IV injection",2.4 ± 0.7
same,Radioactivity measured,"[3]; Thyroid, 15 min after IV injection",5.9 ± 1.2
same,Radioactivity measured,"[3]; Thyroid, 30 min after IV injection",10.2 ± 2.5
same,Radioactivity measured,"[3]; Thyroid, 1 h after IV injection",15.3 ± 5.3
same,Radioactivity measured,"[3]; Tumor (center), 15 min after IV injection",1.7 ± 0.6
same,Radioactivity measured,"[3]; Tumor (center), 30 min after IV injection",1.8 ± 0.3
same,Radioactivity measured,"[3]; Tumor (center), 1 h after IV injection",2.4 ± 0.4
same,Radioactivity measured,"[3]; Tumor (stroma), 15 min after IV injection",3.9 ± 0.8
same,Radioactivity measured,"[3]; Tumor (stroma), 30 min after IV injection",3.8 ± 0.9
same,Radioactivity measured,"[3]; Tumor (stroma), 1 h after IV injection",4.2 ± 0.6
same,Localisation in vivo,"[3]; iodine 125-labeled, injected intravenously, mice carrying a melanoma",accumulates in the stroma of the tumor
same,Cytotoxicity: concentration up to which no toxicity could be measured,B16 melanoma cells; B16 melanoma cells,greater than 100 μM
same,Water-solubility,Water-solubility,water-soluble
CC(C)(C)/[N+]([O-])=C/c1ccc(C(=O)NCCCCC(NC(=O)C(O)[C@H](O)[C@H](O[C@@H]2OC(CO)[C@H](O)C(O)C2O)C(O)CO)C(=O)NCCC(F)(F)C(F)(F)C(F)(F)C(F)(F)C(F)(F)C(F)(F)C(F)(F)C(F)(F)F)cc1 (stereo partly drawn) [molecule E],Toxicity,[4],No toxicity was measured
same,Cell protection,"[4]; NARP fibroblasts, in vitro",exhibits a capacity for cell protection
same,Effect on the apoptotic process,"[4]; NARP fibroblasts, in vitro",inhibits the apoptotic process
"O=C1CCC(N2C(=O)c3ccccc3C2=O)C(=O)N1 (stereo not drawn) [thalidomide, reference compound]",Inhibiting microvessel growth,"[2]; at such concentrations (20 μM, 200 μM)",ineffective
